Literature values in patent US11052042B2, “Aqueous suspensions of ciclesonide for nebulisation” (Covis Pharma B.V., priority 2003, dated 2021).

## CC(C)C(=O)OCC(=O)[C@@]12O[C@H](C3CCCCC3)O[C@@H]1C[C@H]1[C@@H]3CCC4=CC(=O)C=C[C@]4(C)[C@H]3[C@@H](O)C[C@@]12C [Ciclesonide, [11β,16α(R)]-16,17-[(Cyclohexylmethylen)bis(oxy)]-11-hydroxy-21-(2-methyl-1-oxopropoxy)pregna-1,4-dien-3,20-dion]
In vivo
  concentration of the drug in the lungs: high
  metabolism by liver oxidases: very high
  plasma half-life: low
Oral administration
  absorption after oral administration: only moderately absorbed
Relative to budesonide
  anti-inflammatory activity compared with budesonide: higher
  systemic activity compared with budesonide: three times lower
